The first assay concerns Gaeumannomyces graminis var. tritici (Ggt). The assay can be described thus: In vitro Assay: mycelial growth of Ggt on minimal media agar plates containing test compound. Format: cell-based. Particulars: 0.1 ppm in minimal media agar; dark, 19-20° C., 4 to 5 days; diameter of mycelial growth. The protocol: The test compounds (0.25 mL of an appropriate stock solution in acetone) are incorporated into 25 mL minimal media agar [(prepared by autoclaving a solution of 17.5 g Czapek Dox broth (Difco), 7.5 g purified agar or Bacto-agar (Difco), and 500 mL distilled/deionized water, and then adding 50 μL of 1 mg/mL thiamine hydrochloride and 50 μL of 1 mg/mL biotin in 5% ethanol] and plates are prepared.
Each plate is inoculated by placing in a triangular shape three 4-mm plugs of Gaeumannomyces graminis var. tritici (Ggt) grown on the minimal media agar described above. The plates are incubated in the dark at 19-20° C. for 4 to 5 days. The growth of the fungus is measured as the diameter of the mycelial growth. The result is expressed as Percent Inhibition, calculated as [1-[(mm growth on treated plate −4)/(mm growth on control plate −4)]]×100.
With “2-Chloro-N-ethyl-6-(9-phenylethenyl)benzamide [Example 116]”, the “In vitro (ppm) 0.1, Percent Inhibition” value is reported as “N (If the calculation resulted in “0” or less, as compared to the untreated control, a “N” is shown to indicate no control.)”.
Turning to “3-N,N-diethyl-2-(trimethylsilyl)benzamide [Example 15]”, the “In vitro (ppm) 0.1, Percent Inhibition” value is listed as “N (If the calculation resulted in “0” or less, as compared to the untreated control, a “N” is shown to indicate no control.)”.

The same assay, now with this note: 1 ppm in minimal media agar; dark, 19-20° C., 4 to 5 days; diameter of mycelial growth.
For “2-Chloro-N-ethyl-6-(9-phenylethenyl)benzamide [Example 116]”, the “In vitro (ppm) 1, Percent Inhibition” value was “N (If the calculation resulted in “0” or less, as compared to the untreated control, a “N” is shown to indicate no control.)”.
On the same count and under the same terms, the value for “3-N,N-diethyl-2-(trimethylsilyl)benzamide [Example 15]” was “N (If the calculation resulted in “0” or less, as compared to the untreated control, a “N” is shown to indicate no control.)”.

Staying with this assay, now noted: 10 ppm in minimal media agar; dark, 19-20° C., 4 to 5 days; diameter of mycelial growth.
Turning to “2-Chloro-N-ethyl-6-(9-phenylethenyl)benzamide [Example 116]”, the “In vitro (ppm) 10, Percent Inhibition” value was determined as 33%.
The same measure, in the same setting: the figure for “3-N,N-diethyl-2-(trimethylsilyl)benzamide [Example 15]” is 44%.

The same assay, now with this note: Gaeumannomyces graminis; 0.1 ppm in minimal media agar; dark, 19-20° C., 4 to 5 days; diameter of mycelial growth; read-out: In vitro (ppm) 0.1, Percent Inhibition.
`CCN(CC)C(=O)c1cccc(F)c1[Si](C)(C)C(C)(C)C` [Example 9, 2-[(1,1-Dimethylethyl)dimethylsilyl]-N,N-diethyl-3-fluorobenzamide]: the inhibition at 0.1 ppm was found to be 3%.
Still for that read-out and setting: the value for `CCN(CC)C(=O)c1c(C)ccc(F)c1[Si](C)(C)C(C)(C)C` [Example 10, 2-[(1,1-Dimethylethyl)dimethylsilyl]-N,N-diethyl-3-fluoro-6-methylbenzamide] was below 0%; that for `Cc1ccc(F)c([Si](C)(C)C)c1C(=O)N(C)C(C)(C)C` [Example 11, N-(1,1-Dimethylethyl)-3-fluoro-N,6-dimethyl-2-(trimethylsilyl)benzamide] was below 0%.
Turning to `CN(C(=O)c1c(Cl)cccc1[Si](C)(C)C)C(C)(C)C` [Example 23, 2-Chloro-N-(1,1-dimethylethyl)-N-methyl-6-(trimethylsilyl)benzamide], the inhibition at 0.1 ppm is below 0%.
The same measure, in the same setting: the value for `CCN(C(=O)c1c(Cl)cccc1[Si](C)(C)C)c1ccccc1` [Example 24, 2-Chloro-N-ethyl-N-phenyl-6-(trimethylsilyl)benzamide] was below 0%; that for `C[Si](C)(C)c1cccc(Cl)c1C(=O)NCCCCl` [Example 30, 2-Chloro-N-(3-chloropropyl)-6-(trimethylsilyl)benzamide] was below 0%; that for `C[Si](C)(C)c1cccc(Cl)c1C(=O)NCc1ccccc1` [Example 31, 2-Chloro-N-(phenylmethyl)-6-(trimethylsilyl)benzamide] was below 0%.
Same read-out and setting: the figure for `CCN(CC)C(=O)c1c(I)ccc(F)c1[Si](C)(C)C` [Example 40, N,N-Diethyl-3-fluoro-6-iodo-2-(trimethylsilyl)benzamide] is below 0%; for `CCN(CC)C(=O)c1c(C=O)ccc(F)c1[Si](C)(C)C` [Example 41, N,N-Diethyl-3-fluoro-6-formyl-2-(trimethylsilyl)benzamide] it is 24%.
`CCN(CC)C(=O)c1c(C(=O)OC)ccc(F)c1[Si](C)(C)C` [Example 42, 2-[(Diethylamino)carbonyl]-4-fluoro-3-(trimethylsilyl)benzoic acid, methyl ester]: the inhibition at 0.1 ppm was below 0%.
In the case of `CCN(CC)C(=O)c1c(C(=O)OC(C)C)ccc(F)c1[Si](C)(C)C` [Example 43, 2-[(Diethylamino)carbonyl]-4-fluoro-3-(trimethylsilyl)benzoic acid, 1-methylethyl ester], the inhibition at 0.1 ppm is below 0%.
In the case of `CCc1cccc([Si](C)(C)C)c1C(=O)N(CC)CC` [Example 44, N,N,2-Triethyl-6-(trimethylsilyl)benzamide], the inhibition at 0.1 ppm was below 0%.

Still in this assay, the particulars now being: Gaeumannomyces graminis; 1 ppm in minimal media agar; dark, 19-20° C., 4 to 5 days; diameter of mycelial growth; read-out: In vitro (ppm) 1, Percent Inhibition.
On to `CCN(CC)C(=O)c1cccc(F)c1[Si](C)(C)C(C)(C)C` [Example 9, 2-[(1,1-Dimethylethyl)dimethylsilyl]-N,N-diethyl-3-fluorobenzamide], for which the inhibition at 1 ppm is below 0%.
With `CCN(CC)C(=O)c1c(C)ccc(F)c1[Si](C)(C)C(C)(C)C` [Example 10, 2-[(1,1-Dimethylethyl)dimethylsilyl]-N,N-diethyl-3-fluoro-6-methylbenzamide], the inhibition at 1 ppm is below 0%.
For the molecule `Cc1ccc(F)c([Si](C)(C)C)c1C(=O)N(C)C(C)(C)C` [Example 11, N-(1,1-Dimethylethyl)-3-fluoro-N,6-dimethyl-2-(trimethylsilyl)benzamide], the inhibition at 1 ppm is below 0%.
On to `CN(C(=O)c1c(Cl)cccc1[Si](C)(C)C)C(C)(C)C` [Example 23, 2-Chloro-N-(1,1-dimethylethyl)-N-methyl-6-(trimethylsilyl)benzamide], for which the inhibition at 1 ppm is below 0%.
On the same count and under the same terms, the figure for `CCN(C(=O)c1c(Cl)cccc1[Si](C)(C)C)c1ccccc1` [Example 24, 2-Chloro-N-ethyl-N-phenyl-6-(trimethylsilyl)benzamide] is below 0%.
The same measure, in the same setting: the figure for `C[Si](C)(C)c1cccc(Cl)c1C(=O)NCCCCl` [Example 30, 2-Chloro-N-(3-chloropropyl)-6-(trimethylsilyl)benzamide] is 60%; for `C[Si](C)(C)c1cccc(Cl)c1C(=O)NCc1ccccc1` [Example 31, 2-Chloro-N-(phenylmethyl)-6-(trimethylsilyl)benzamide] it is 4%.
In the case of `CCN(CC)C(=O)c1c(I)ccc(F)c1[Si](C)(C)C` [Example 40, N,N-Diethyl-3-fluoro-6-iodo-2-(trimethylsilyl)benzamide], the inhibition at 1 ppm is below 0%.
Take `CCN(CC)C(=O)c1c(C=O)ccc(F)c1[Si](C)(C)C` [Example 41, N,N-Diethyl-3-fluoro-6-formyl-2-(trimethylsilyl)benzamide]: the inhibition at 1 ppm is 21%.
For the molecule `CCN(CC)C(=O)c1c(C(=O)OC)ccc(F)c1[Si](C)(C)C` [Example 42, 2-[(Diethylamino)carbonyl]-4-fluoro-3-(trimethylsilyl)benzoic acid, methyl ester], the inhibition at 1 ppm was below 0%.
For `CCN(CC)C(=O)c1c(C(=O)OC(C)C)ccc(F)c1[Si](C)(C)C` [Example 43, 2-[(Diethylamino)carbonyl]-4-fluoro-3-(trimethylsilyl)benzoic acid, 1-methylethyl ester], the inhibition at 1 ppm is below 0%.
`CCc1cccc([Si](C)(C)C)c1C(=O)N(CC)CC` [Example 44, N,N,2-Triethyl-6-(trimethylsilyl)benzamide]: the inhibition at 1 ppm is below 0%.

The same assay, now with this note: Gaeumannomyces graminis; 10 ppm in minimal media agar; dark, 19-20° C., 4 to 5 days; diameter of mycelial growth; read-out: In vitro (ppm) 10, Percent Inhibition.
For the molecule `CCN(CC)C(=O)c1cccc(F)c1[Si](C)(C)C(C)(C)C` [Example 9, 2-[(1,1-Dimethylethyl)dimethylsilyl]-N,N-diethyl-3-fluorobenzamide], the inhibition at 10 ppm worked out at 71%.
For the molecule `CCN(CC)C(=O)c1c(C)ccc(F)c1[Si](C)(C)C(C)(C)C` [Example 10, 2-[(1,1-Dimethylethyl)dimethylsilyl]-N,N-diethyl-3-fluoro-6-methylbenzamide], the inhibition at 10 ppm stood at 50%.
For the molecule `Cc1ccc(F)c([Si](C)(C)C)c1C(=O)N(C)C(C)(C)C` [Example 11, N-(1,1-Dimethylethyl)-3-fluoro-N,6-dimethyl-2-(trimethylsilyl)benzamide], the inhibition at 10 ppm came to 24%.
Take `CN(C(=O)c1c(Cl)cccc1[Si](C)(C)C)C(C)(C)C` [Example 23, 2-Chloro-N-(1,1-dimethylethyl)-N-methyl-6-(trimethylsilyl)benzamide]: the inhibition at 10 ppm turned out to be 71%.
As to `CCN(C(=O)c1c(Cl)cccc1[Si](C)(C)C)c1ccccc1` [Example 24, 2-Chloro-N-ethyl-N-phenyl-6-(trimethylsilyl)benzamide], the inhibition at 10 ppm worked out at 100%.
On the same count and under the same terms, the value for `C[Si](C)(C)c1cccc(Cl)c1C(=O)NCCCCl` [Example 30, 2-Chloro-N-(3-chloropropyl)-6-(trimethylsilyl)benzamide] was 80%.
Turning to `C[Si](C)(C)c1cccc(Cl)c1C(=O)NCc1ccccc1` [Example 31, 2-Chloro-N-(phenylmethyl)-6-(trimethylsilyl)benzamide], the inhibition at 10 ppm stood at 96%.
On the same count and under the same terms, the figure for `CCN(CC)C(=O)c1c(I)ccc(F)c1[Si](C)(C)C` [Example 40, N,N-Diethyl-3-fluoro-6-iodo-2-(trimethylsilyl)benzamide] is 53%.
With `CCN(CC)C(=O)c1c(C=O)ccc(F)c1[Si](C)(C)C` [Example 41, N,N-Diethyl-3-fluoro-6-formyl-2-(trimethylsilyl)benzamide], the inhibition at 10 ppm turned out to be 52%.
Consider `CCN(CC)C(=O)c1c(C(=O)OC)ccc(F)c1[Si](C)(C)C` [Example 42, 2-[(Diethylamino)carbonyl]-4-fluoro-3-(trimethylsilyl)benzoic acid, methyl ester], for which the inhibition at 10 ppm amounted to 30%.
Still for that read-out and setting: the value for `CCN(CC)C(=O)c1c(C(=O)OC(C)C)ccc(F)c1[Si](C)(C)C` [Example 43, 2-[(Diethylamino)carbonyl]-4-fluoro-3-(trimethylsilyl)benzoic acid, 1-methylethyl ester] was 63%; that for `CCc1cccc([Si](C)(C)C)c1C(=O)N(CC)CC` [Example 44, N,N,2-Triethyl-6-(trimethylsilyl)benzamide] was 39%.

The inhibition is the relative decrease from the control value, in per cent.

Source of the values: patent publication US6410558B1, “Fungicides for the control of take-all disease of plants” (Monsanto Technology LLC, priority 1991, dated 2002).
